Read-outs that look alike come from different tables or passages of the source.
How the values were obtained:
Assay in all cases: biochemical
Format in all cases: binding
[1] = target: 468 kinases (Homo sapiens, UniProt P17612); details: PKAC-alpha; read-out: % Inhibition @ 100 nM
[2] = target: 468 kinases (Homo sapiens, UniProt Q9H4B4); details: PLK3; read-out: % Inhibition @ 100 nM
[3] = target: 468 kinases (Homo sapiens, UniProt O15111); details: IKK-alpha; read-out: % Inhibition @ 100 nM
[4] = target: 468 kinases (Homo sapiens, UniProt Q13043); details: MST1; read-out: % Inhibition @ 100 nM
[5] = target: 468 kinases (Homo sapiens, UniProt O00238); details: BMPR1B; read-out: % Inhibition @ 100 nM
[6] = target: 468 kinases (Homo sapiens, UniProt Q52WX2); details: SBK1; read-out: % Inhibition @ 100 nM
[7] = target: 468 kinases (Homo sapiens, UniProt P14616); details: INSRR; read-out: % Inhibition @ 100 nM
[8] = target: 468 kinases (Homo sapiens, UniProt O15264); details: p38-delta; read-out: % Inhibition @ 100 nM
[9] = target: 468 kinases (Homo sapiens, UniProt P42336, H1047Y); details: PIK3CA(H1047Y); read-out: % Inhibition @ 100 nM
[10] = target: 468 kinases (Homo sapiens, UniProt P11802); details: read-out: % Inhibition @ 100 nM
[11] = target: 468 kinases (Plasmodium falciparum, UniProt P62344); details: PFCDPK1 (P.falciparum); read-out: % Inhibition @ 100 nM
[12] = target: 468 kinases (Homo sapiens, UniProt P48736); details: PIK3CG; read-out: % Inhibition @ 100 nM
[13] = target: 468 kinases (Homo sapiens, UniProt O00329); details: PIK3CD; read-out: % Inhibition @ 100 nM
[14] = target: 468 kinases (Homo sapiens, UniProt P15056); details: BRAF; read-out: % Inhibition @ 100 nM
[15] = target: 468 kinases (Homo sapiens, UniProt O43293); details: DAPK3; read-out: % Inhibition @ 100 nM
[16] = target: 468 kinases (Homo sapiens, UniProt O75582); details: read-out: % Inhibition @ 100 nM
[17] = target: 468 kinases (Homo sapiens, UniProt P22607, G697C); details: FGFR3(G697C); read-out: % Inhibition @ 100 nM
[18] = target: 468 kinases (Homo sapiens, UniProt O94768); details: DRAK2; read-out: % Inhibition @ 100 nM
[19] = target: 468 kinases (Homo sapiens, UniProt Q9Y463); details: DYRK1B; read-out: % Inhibition @ 100 nM
[20] = target: 468 kinases (Homo sapiens, UniProt P35626); details: GRK3; read-out: % Inhibition @ 100 nM
[21] = target: 468 kinases (Homo sapiens, UniProt O15075); details: DCAMKL1; read-out: % Inhibition @ 100 nM
[22] = target: 468 kinases (Homo sapiens, UniProt P78368); details: CSNK1G2; read-out: % Inhibition @ 100 nM
[23] = target: 468 kinases (Homo sapiens, UniProt Q15303); details: ERBB4; read-out: % Inhibition @ 100 nM
[24] = target: 468 kinases (Homo sapiens, UniProt Q14012); details: CAMK1; read-out: % Inhibition @ 100 nM
[25] = target: 468 kinases (Homo sapiens, UniProt P42336, E542K); details: PIK3CA(E542K); read-out: % Inhibition @ 100 nM
[26] = target: 468 kinases (Homo sapiens, UniProt P42345); details: MTOR; read-out: % Inhibition @ 100 nM
[27] = target: 468 kinases (Homo sapiens, UniProt P42336); details: PIK3CA; read-out: % Inhibition @ 100 nM
[28] = target: 468 kinases (Homo sapiens, UniProt O60674); details: JAK2( JH1domain-catalytic); read-out: % Inhibition @ 100 nM
[29] = target: 468 kinases (Homo sapiens, UniProt O14976); details: GAK; read-out: % Inhibition @ 100 nM
[30] = target: 468 kinases (Homo sapiens, UniProt O14733); details: MKK7; read-out: % Inhibition @ 100 nM
[31] = target: 468 kinases (Homo sapiens, UniProt Q99683); details: ASK1; read-out: % Inhibition @ 100 nM
[32] = target: 468 kinases (Homo sapiens, UniProt P42336, I800L); details: PIK3CA(I800L); read-out: % Inhibition @ 100 nM

SMILES	inhibition at 0.1 µM [1] [%]	inhibition at 0.1 µM [2] [%]	inhibition at 0.1 µM [3] [%]	inhibition at 0.1 µM [4] [%]	inhibition at 0.1 µM [5] [%]	inhibition at 0.1 µM [6] [%]	inhibition at 0.1 µM [7] [%]	inhibition at 0.1 µM [8] [%]	inhibition at 0.1 µM [9] [%]	inhibition at 0.1 µM ([10]; CDK4-cyclinD1) [%]	inhibition at 0.1 µM ([10]; CDK4-cyclinD3) [%]	inhibition at 0.1 µM ([10]; CDK4) [%]	inhibition at 0.1 µM [11] [%]	inhibition at 0.1 µM [12] [%]	inhibition at 0.1 µM [13] [%]	inhibition at 0.1 µM [14] [%]	inhibition at 0.1 µM [15] [%]	inhibition at 0.1 µM ([16]; RPS6KA5(Kin.Dom.1-N-terminal)) [%]	inhibition at 0.1 µM ([16]; RPS6KA5(Kin.Dom.2-C-terminal)) [%]	inhibition at 0.1 µM [17] [%]	also measured
CCN(CC)CCNC(=O)c1c(C)[nH]c(/C=C2\C(=O)Nc3ccc(CCC(N)=O)cc32)c1C [Compound No. 16, (Z)-5-((5-(3-Amino-3-oxopropyl)-2-oxoindolin-3-ylidene)methyl)-N-(2-(diethylamino)ethyl)-2,4-dimethyl-1H-pyrrole-3-carboxamide]	0	16	20	0	28	58	10	0	28	29	16	9	14	22	24	11	21	0	17	12	inhibition at 0.1 µM [18]: 0%; inhibition at 0.1 µM [19]: 0%; inhibition at 0.1 µM [20]: 61%; inhibition at 0.1 µM [21]: 32%; inhibition at 0.1 µM [22]: 3%; inhibition at 0.1 µM [23]: 6%; inhibition at 0.1 µM [24]: 0%; inhibition at 0.1 µM [25]: 26%; inhibition at 0.1 µM [26]: 6%; inhibition at 0.1 µM [27]: 14%; inhibition at 0.1 µM [28]: 76%; inhibition at 0.1 µM [29]: 35%; inhibition at 0.1 µM [30]: 17%; inhibition at 0.1 µM [31]: 20%; inhibition at 0.1 µM [32]: 20%
CCN(CC)CCNC(=O)c1c(C)[nH]c(/C=C2\C(=O)Nc3ccc(CCO)cc32)c1C [Compound No. 10, (Z)—N-(2-(Diethylamino)ethyl)-5-((5-(2-hydroxyethyl)-2-oxoindolin-3-ylidene)methyl)-2,4-dimethyl-1H-pyrrole-3-carboxamide]	0	4	0	28	0	40	1	0	4	5	0	0	0	0	0	2	5	11	0	52	inhibition at 0.1 µM [18]: 1%; inhibition at 0.1 µM [19]: 75%; inhibition at 0.1 µM [20]: 0%; inhibition at 0.1 µM [21]: 32%; inhibition at 0.1 µM [22]: 0%; inhibition at 0.1 µM [23]: 15%; inhibition at 0.1 µM [24]: 0%; inhibition at 0.1 µM [25]: 10%; inhibition at 0.1 µM [26]: 0%; inhibition at 0.1 µM [27]: 0%; inhibition at 0.1 µM [28]: 72%; inhibition at 0.1 µM [29]: 36%; inhibition at 0.1 µM [30]: 0%; inhibition at 0.1 µM [31]: 0%; inhibition at 0.1 µM [32]: 41%
